Experimental data as given in ChEMBL document CHEMBL1137226, “Structure modifications of 6-aminoquinolones with potent anti-HIV activity” (J Med Chem, 2004).
≈ marks a conversion by molar mass, not a printed value.

Key:
MT4 [1] = test: Maximum protection (%) of MT-4 cells from HIV-2 (ROD) induced cytopathogenicity; value ranges from 27-33%; format: functional, Homo sapiens
MT4 [2] = test: Concentration of compound that reduces the viability of mock-infected MT-4 cells by 50%; format: functional; details: Homo sapiens
MT4 [3] = test: Maximum protection (%) of MT-4 cells from HIV-1 (IIIB) induced cytopathogenicity; value ranges from 32-39%; format: functional, Homo sapiens
MT4 [4] = test: Concentration required for protection of MT-4 cells from HIV-1 (IIIB) induced cytopathogenicity in MTT assay; format: functional, cell-based; details: Homo sapiens
MT4 [5] = test: Concentration required for protection of MT-4 cells from HIV-2 (ROD) induced cytopathogenicity in MTT assay; format: functional, cell-based; details: Homo sapiens
MT4 [6] = test: Selectivity index towards HIV-2 (ROD) in MT-4 cells; format: functional, Homo sapiens
MT4 [7] = test: Selectivity index towards HIV-1 (IIIB) in MT-4 cells; format: functional, Homo sapiens
MT4 [8] = test: Maximum protection (%) of MT-4 cells from HIV-2 (ROD) induced cytopathogenicity; format: functional, Homo sapiens
MT4 [9] = test: Maximum protection (%) of MT-4 cells from HIV-1 (IIIB) induced cytopathogenicity; value ranges from 8-9%; format: functional, Homo sapiens
CCRF-CEM [10] = test: Concentration of compound that reduces the viability of mock-infected CEM cells by 50%; format: functional; details: Homo sapiens
MT4 [11] = test: Maximum protection (%) of MT-4 cells from HIV-2 (ROD) induced cytopathogenicity; value ranges from 40-43%; format: functional, Homo sapiens
MT4 [12] = test: Maximum protection (%) of MT-4 cells from HIV-1 (IIIB) induced cytopathogenicity; value ranges from 53-59%; format: functional, Homo sapiens
[13] = Concentration of compound required for reduction of p24 production in HIV-1 (IIIB) infected peripheral blood mononuclear cells; format: functional; details: Homo sapiens
CCRF-CEM [14] = test: Concentration of compound required for protection of CEM cells from HIV-2 (ROD) induced cytopathogenicity; format: functional, cell-based; details: Homo sapiens
CCRF-CEM [15] = test: Concentration of compound required for protection of CEM cells from HIV-1 (IIIB) induced cytopathogenicity; format: functional, cell-based; details: Homo sapiens
[16] = Concentration of compound that reduces the viability of mock-infected peripheral blood mononuclear cells by 50%; format: functional; details: Homo sapiens
CCRF-CEM [17] = test: Selectivity index towards HIV-2 (ROD) in CEM cells; format: functional, Homo sapiens
CCRF-CEM [18] = test: Selectivity index towards HIV-1 (IIIB) in CEM cells; format: functional, Homo sapiens
[19] = Selectivity index towards HIV-1 (IIIB) in peripheral blood mononuclear cells; format: functional, Homo sapiens
MT4 [20] = test: Maximum protection (%) of MT-4 cells from HIV-1 (IIIB) induced cytopathogenicity; value ranges from 3-8%; format: functional, Homo sapiens
MT4 [21] = test: Maximum protection (%) of MT-4 cells from HIV-2 (ROD) induced cytopathogenicity; value ranges from 40-42%; format: functional, Homo sapiens
MT4 [22] = test: Maximum protection (%) of MT-4 cells from HIV-1 (IIIB) induced cytopathogenicity; value ranges from 29-37%; format: functional, Homo sapiens
MT4 [23] = test: Maximum protection (%) of MT-4 cells from HIV-1 (IIIB) induced cytopathogenicity; value ranges from 2-14%; format: functional, Homo sapiens
MT4 [24] = test: Maximum protection (%) of MT-4 cells from HIV-1 (IIIB) induced cytopathogenicity; value ranges from 4-13%; format: functional, Homo sapiens
MT4 [25] = test: Maximum protection (%) of MT-4 cells from HIV-1 (IIIB) induced cytopathogenicity; value ranges from 14-20%; format: functional, Homo sapiens
MT4 [26] = test: Maximum protection (%) of MT-4 cells from HIV-1 (IIIB) induced cytopathogenicity; value ranges from 5-6%; format: functional, Homo sapiens
MT4 [27] = test: Maximum protection (%) of MT-4 cells from HIV-2 (ROD) induced cytopathogenicity; value ranges from 21-26%; format: functional, Homo sapiens
MT4 [28] = test: Maximum protection (%) of MT-4 cells from HIV-1 (IIIB) induced cytopathogenicity; value ranges from 16-49%; format: functional, Homo sapiens

`Cn1cc(C(=O)O)c(=O)c2cnc(N3CCN(c4ccccn4)CC3)cc21` gave a Protection (MT4 [1]) of less than 33%, a CC50 (MT4 [2]) of 67.4 µg/mL (≈ 184 µM) and a Protection (MT4 [3]) of less than 39%. The EC50 (MT4 [4]) was greater than 67.4 µg/mL, the EC50 (MT4 [5]) was greater than 67.4 µg/mL and the Selectivity index (MT4 [6]) was less than 1. It also gave a Selectivity index (MT4 [7]) of less than 1.

For `COc1ccccc1N1CCN(c2ccc3c(=O)c(C(=O)O)cn(C)c3c2)CC1`, the CC50 (MT4 [2]) was greater than 125 µg/mL, the Protection (MT4 [8]) was 6% and the Protection (MT4 [9]) was less than 9%. The EC50 (MT4 [4]) was greater than 125 µg/mL and the EC50 (MT4 [5]) was greater than 125 µg/mL.

Molecule `Cn1cc(C(=O)O)c(=O)c2ccc(N3CCN(c4ccccn4)CC3)cc21` has a CC50 (CCRF-CEM [10]) greater than 100 µg/mL, a CC50 (MT4 [2]) of 65.5 µg/mL (≈ 180 µM) and a Protection (MT4 [11]) of less than 43%. For the same molecule, the Protection (MT4 [12]) was less than 59%, the EC50 (MT4 [4]) was 19.2 µg/mL (≈ 52.7 µM) and the EC50 [13] was 1.37 µg/mL (≈ 3.76 µM). It also gave an EC50 (CCRF-CEM [14]) of 1.8 µg/mL (≈ 4.94 µM), an EC50 (CCRF-CEM [15]) of 1.2 µg/mL (≈ 3.29 µM) and an EC50 (MT4 [5]) greater than 65.5 µg/mL. For the same molecule, the CC50 [16] was greater than 100 µg/mL, the Selectivity index (CCRF-CEM [17]) was greater than 56 and the Selectivity index (CCRF-CEM [18]) was greater than 83. It also gave a Selectivity index (MT4 [6]) of less than 1, a Selectivity index (MT4 [7]) of 3.4 and a Selectivity index [19] greater than 73.

In the case of `Cn1cc(C(=O)O)c(=O)c2cc([N+](=O)[O-])c(N3CCN(c4ccccn4)CC3)c(F)c21`, the CC50 (MT4 [2]) is reported as 29.6 µg/mL (≈ 69.2 µM), the Protection (MT4 [8]) is reported as 4% and the Protection (MT4 [20]) is reported as less than 8%. The EC50 (MT4 [4]) was greater than 29.6 µg/mL, the EC50 (MT4 [5]) was greater than 29.6 µg/mL and the Selectivity index (MT4 [6]) was less than 1. The Selectivity index (MT4 [7]) was less than 1.

Work on `Cn1cc(C(=O)O)c(=O)c2cc(N)c(N3CCN(c4ccccn4)CC3)c(F)c21` yielded a CC50 (MT4 [2]) of 6.08 µg/mL (≈ 15.3 µM), a Protection (MT4 [21]) of less than 42% and a Protection (MT4 [22]) of less than 37%. It also gave an EC50 (MT4 [4]) greater than 6.08 µg/mL, an EC50 (MT4 [5]) greater than 6.08 µg/mL and a Selectivity index (MT4 [6]) of less than 1. It also gave a Selectivity index (MT4 [7]) of less than 1.

Molecule `Nc1cc2c(=O)c(C(=O)O)cn(C3CCN(Cc4ccccc4)CC3)c2cc1N1CCN(c2ccccn2)CC1` has a CC50 (MT4 [2]) of 2.36 µg/mL (≈ 4.38 µM), a Protection (MT4 [8]) of 5% and a Protection (MT4 [23]) of less than 14%. The EC50 (MT4 [4]) was greater than 2.36 µg/mL, the EC50 (MT4 [5]) was greater than 2.36 µg/mL and the Selectivity index (MT4 [6]) was less than 1. It also gave a Selectivity index (MT4 [7]) of less than 1.

With `Cn1cc(C(=O)O)c(=O)c2cc([N+](=O)[O-])c(N3CCN(c4ccccn4)CC3)cc21` the Protection (MT4 [24]) was less than 13%, the CC50 (MT4 [2]) was 10.1 µg/mL (≈ 24.6 µM) and the Protection (MT4 [8]) was 5%. It also gave an EC50 (MT4 [4]) greater than 10.1 µg/mL, an EC50 (MT4 [5]) greater than 10.1 µg/mL and a Selectivity index (MT4 [6]) of less than 1. For the same molecule, the Selectivity index (MT4 [7]) was less than 1.

`Nc1cc2c(=O)c(C(=O)O)cn(-c3nc4ccccc4s3)c2cc1N1CCN(c2ccccn2)CC1` gave a CC50 (MT4 [2]) of 9.13 µg/mL (≈ 18.3 µM), a Protection (MT4 [8]) of 21% and a Protection (MT4 [25]) of less than 20%. For the same molecule, the EC50 (MT4 [4]) was greater than 9.13 µg/mL, the EC50 (MT4 [5]) was greater than 9.13 µg/mL and the Selectivity index (MT4 [6]) was less than 1. For the same molecule, the Selectivity index (MT4 [7]) was less than 1.

`Nc1cc2c(=O)c(C(=O)O)cn(-c3ccc(-c4ccccc4)cc3)c2cc1N1CCN(c2nc3ccccc3s2)CC1` showed a CC50 (MT4 [2]) of 0.67 µg/mL (≈ 1.17 µM), a Protection (MT4 [8]) of 1% and a Protection (MT4 [26]) of less than 6%. It also gave an EC50 (MT4 [4]) greater than 0.67 µg/mL, an EC50 (MT4 [5]) greater than 0.67 µg/mL and a Selectivity index (MT4 [6]) of less than 1. It also gave a Selectivity index (MT4 [7]) of less than 1.

Work on `COc1c(N2CCN(c3ccccn3)CC2)c(N)cc2c(=O)c(C(=O)O)cn(C)c12` yielded a Protection (MT4 [27]) of less than 26%, a CC50 (MT4 [2]) of 4.28 µg/mL (≈ 10.5 µM) and a Protection (MT4 [28]) of less than 49%. The EC50 (MT4 [4]) was greater than 4.28 µg/mL, the EC50 (MT4 [5]) was greater than 4.28 µg/mL and the Selectivity index (MT4 [6]) was less than 1. The Selectivity index (MT4 [7]) was less than 1.
